From patent publication US10940129B2, “Method of treatment for reducing pain sensitization” (priority 2018, dated 2021)
Changes are numbered by the printed parent chain. Read-outs that look alike come from different tables or passages of the source.

Legend:
chronic pain = test: Self-reports of voluntary evaluators taking Protein-Allium (10 point pain scale, symptoms, side effects)
Description: On a 10 point pain scale the pain level was 10.
On a 10 point pain scale, the pain level was 10.

male rats = conditions: 5 day course started 10 days after chronic constriction injury; cited from earlier work
mouse TRPA1 = biological target: T1, mouse TRPA1 (Mus musculus, UniProt Q8BLA8); conditions: HEK 293 cells transfected with mouse TRPA1; cited from earlier work
T1 construct: expressed in transfected cells; host or cells: HEK 293
T1 sequence (Q8BLA8 whole entry): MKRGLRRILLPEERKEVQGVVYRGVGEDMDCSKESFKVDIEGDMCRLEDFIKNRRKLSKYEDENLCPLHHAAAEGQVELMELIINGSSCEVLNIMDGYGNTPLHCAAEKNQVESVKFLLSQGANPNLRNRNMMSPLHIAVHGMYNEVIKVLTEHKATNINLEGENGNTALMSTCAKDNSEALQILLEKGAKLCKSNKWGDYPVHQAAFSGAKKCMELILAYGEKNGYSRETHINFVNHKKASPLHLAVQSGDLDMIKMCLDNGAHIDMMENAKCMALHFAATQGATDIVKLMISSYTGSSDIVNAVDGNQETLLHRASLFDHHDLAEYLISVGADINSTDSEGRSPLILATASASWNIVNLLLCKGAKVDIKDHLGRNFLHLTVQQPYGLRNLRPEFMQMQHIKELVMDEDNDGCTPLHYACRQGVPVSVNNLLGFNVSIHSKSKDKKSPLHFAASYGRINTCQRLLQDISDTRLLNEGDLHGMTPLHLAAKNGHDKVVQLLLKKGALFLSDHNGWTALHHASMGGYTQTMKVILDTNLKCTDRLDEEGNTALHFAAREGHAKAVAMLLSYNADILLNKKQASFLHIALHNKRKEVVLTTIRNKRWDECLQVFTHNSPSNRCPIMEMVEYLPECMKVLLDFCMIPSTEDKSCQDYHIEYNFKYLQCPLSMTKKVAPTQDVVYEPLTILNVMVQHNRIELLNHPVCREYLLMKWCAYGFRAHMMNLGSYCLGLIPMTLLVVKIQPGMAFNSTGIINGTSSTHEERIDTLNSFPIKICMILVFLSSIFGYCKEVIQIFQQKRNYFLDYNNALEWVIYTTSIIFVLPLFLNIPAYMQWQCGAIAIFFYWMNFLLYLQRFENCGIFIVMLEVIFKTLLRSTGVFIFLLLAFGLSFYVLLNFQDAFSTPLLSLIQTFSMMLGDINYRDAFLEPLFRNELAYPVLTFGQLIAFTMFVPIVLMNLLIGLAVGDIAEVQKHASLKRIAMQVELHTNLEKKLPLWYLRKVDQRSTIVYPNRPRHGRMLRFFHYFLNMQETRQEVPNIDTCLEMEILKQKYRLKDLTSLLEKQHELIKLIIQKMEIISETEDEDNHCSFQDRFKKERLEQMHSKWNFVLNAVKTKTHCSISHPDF

[1] = tested on: ALDH2*1/*2 mutant and wild-type mice; conditions: cited from earlier work; for licking or flinching: 100 ng into a rear paw
[2] = Computed Log P (PubChem, XLogP3-AA algorithm); conditions: worked out from Log P
Description: Partition coefficient; Log P: The ratio of the concentrations of a solute between two solvents. When one of the solvents is non-polar and the other is water, this is a measure of lipophilicity and the logarithm of the ratio is Log P. Unless otherwise specified, the Log P values reported herein are from the National Library of Medicine “PubChem” database (which uses the XLogP3-AA algorithm for Log P determination).

[3] = tested on: formaldehyde induced pain and toxicity; conditions: [Bai, 2012], [Song, 2010]; cited from earlier work
TRPA1 [4] = biological target: TRPA1 (Homo sapiens, UniProt O75762); test: TRPA1 agonist activity
Chain of TRPA1 (Homo sapiens, UniProt O75762) (O75762 whole entry, species assumed): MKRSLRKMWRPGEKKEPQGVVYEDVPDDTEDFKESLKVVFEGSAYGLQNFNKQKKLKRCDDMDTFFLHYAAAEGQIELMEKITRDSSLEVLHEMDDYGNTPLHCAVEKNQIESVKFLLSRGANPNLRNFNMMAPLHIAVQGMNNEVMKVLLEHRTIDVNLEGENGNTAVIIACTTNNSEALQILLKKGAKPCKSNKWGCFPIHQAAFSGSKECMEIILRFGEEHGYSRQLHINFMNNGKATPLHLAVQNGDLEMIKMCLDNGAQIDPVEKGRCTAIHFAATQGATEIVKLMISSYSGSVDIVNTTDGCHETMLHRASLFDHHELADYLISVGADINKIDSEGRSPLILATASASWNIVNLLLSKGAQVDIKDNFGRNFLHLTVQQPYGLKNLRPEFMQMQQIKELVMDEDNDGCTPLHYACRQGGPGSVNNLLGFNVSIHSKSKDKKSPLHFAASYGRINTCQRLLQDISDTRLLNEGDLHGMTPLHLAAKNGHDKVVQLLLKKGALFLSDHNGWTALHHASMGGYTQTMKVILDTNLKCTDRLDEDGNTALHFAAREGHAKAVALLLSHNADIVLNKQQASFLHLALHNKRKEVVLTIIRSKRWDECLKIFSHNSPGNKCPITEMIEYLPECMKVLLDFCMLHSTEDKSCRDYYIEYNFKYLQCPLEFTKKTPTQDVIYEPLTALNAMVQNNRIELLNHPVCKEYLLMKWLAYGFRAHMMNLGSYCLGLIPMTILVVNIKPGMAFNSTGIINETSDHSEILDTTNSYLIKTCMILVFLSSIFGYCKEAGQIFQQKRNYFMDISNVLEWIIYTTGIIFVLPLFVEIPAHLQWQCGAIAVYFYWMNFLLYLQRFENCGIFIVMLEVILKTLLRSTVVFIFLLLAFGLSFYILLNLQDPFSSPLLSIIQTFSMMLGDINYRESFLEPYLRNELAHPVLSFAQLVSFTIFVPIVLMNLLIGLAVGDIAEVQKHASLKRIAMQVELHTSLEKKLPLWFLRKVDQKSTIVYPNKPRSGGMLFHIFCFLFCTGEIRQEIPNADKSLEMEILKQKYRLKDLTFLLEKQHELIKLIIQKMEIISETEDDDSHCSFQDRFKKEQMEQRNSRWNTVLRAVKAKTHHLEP

ALDH2*1 = biological target: T2, ALDH2*1 (Homo sapiens, UniProt P05091); conditions: [Perez-Miller, 2010]; cited from earlier work
T2 sequence (P05091 18-517): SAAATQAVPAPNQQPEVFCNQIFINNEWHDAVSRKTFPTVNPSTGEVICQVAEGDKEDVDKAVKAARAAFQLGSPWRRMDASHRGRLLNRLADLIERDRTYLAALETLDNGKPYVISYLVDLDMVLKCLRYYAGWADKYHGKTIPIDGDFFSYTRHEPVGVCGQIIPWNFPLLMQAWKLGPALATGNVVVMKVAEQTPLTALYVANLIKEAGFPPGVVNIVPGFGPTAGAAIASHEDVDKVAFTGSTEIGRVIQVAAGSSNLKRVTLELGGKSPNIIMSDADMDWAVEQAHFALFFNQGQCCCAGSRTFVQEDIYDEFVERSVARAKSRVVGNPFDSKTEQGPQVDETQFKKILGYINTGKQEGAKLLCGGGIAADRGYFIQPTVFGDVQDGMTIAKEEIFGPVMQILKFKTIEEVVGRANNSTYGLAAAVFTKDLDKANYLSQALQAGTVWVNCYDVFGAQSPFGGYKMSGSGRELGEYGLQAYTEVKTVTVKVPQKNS

ALDH2*1/*2 mice = conditions: 1.2 g stimulus level, 3 hours after carrageenan; cited from earlier work
ALDH2*2 = biological target: T3, ALDH2*2 (Homo sapiens, UniProt P05091, E504K); conditions: [Chen, 2008]; cited from earlier work
T3 sequence (P05091 18-517 E504K): T2 sequence (P05091 18-517) with E487K

[5] = tested on: wild-type and mutant mice; conditions: 10 to 40 minutes; formalin (2% aqueous formaldehyde) into the paw; both wild-type and mutant mice; cited from earlier work
[6] = tested on: glutathione content of cells; conditions: daily dosage of 1000 mg; patients; cited from earlier work
TRPA1 [7] = conditions: low level of 4-HNE; 25 degrees C. to 10 degrees; cited from earlier work
mice = conditions: low dose into the hind paws; zero degree cold plate; vehicle 125 seconds; cited from earlier work

## C[C@]12CCC(=O)C=C1CC[C@@H]1[C@@H]2C(=O)C[C@@]2(C)[C@H]1CC[C@]2(O)C(=O)CO [cortisone]
Chronic pain; injection, subject one
  benefit on back pain: minimal benefit

## CN1CC[C@]23c4c5ccc(O)c4O[C@H]2[C@@H](O)C=C[C@H]3[C@H]1C5 [morphine]
Male rats
  duration of injury-related allodynia: more than doubling

## CC12CCC(CC1=O)C2(C)C (centres unmarked) [camphor]
Mouse TRPA1
  effect on H2O2-induced Ca^2+ increase: prevents

## CC=O [acetylaldehyde]
[1]; mutant mice
  licking or flinching: 5 s
[1]; wild-type mice
  licking or flinching: 4 s
[1]; after injection, mutant vs wild-type mice
  mutant mice more sensitive to pressure (nociceptive threshold): 4 times

## CCCS [Propyl mercaptan, 1-PropaneThiol]
[2]
  concentration on the oily (lipid) side relative to the aqueous side: about 65 times

## CCCSSCCC [disulfide from propyl mercaptan, dipropyl disulfide]
[2]
  concentration on the oily (lipid) side relative to the aqueous side: about 500 times

## NNCCc1ccccc1 [Phenelzine]
[3]
  reducing formaldehyde induced pain and toxicity: effective

## COc1ccc2cc([C@H](C)C(=O)O)ccc2c1 [Naprosyn]
Chronic pain; 10-point pain scale, subject two
  pain level, adenomyosis: 4

## N[C@@H](CS)C(=O)O [cysteine, (R)-2-Amino-3-mercaptopropanoic acid]
[2]
  partitions into water vs. oil: ~300 to 1

## CCCCC/C=C/C=C1/C(=O)C=C[C@@H]1C/C=C\CCCC(=O)O [15d-PGJ2]
TRPA1 [4]
  more active than 4-HNE: ~10

## N[C@@H](CCS)C(=O)O [Homocysteine, (S)-2-Amino-4-mercaptobutyric acid]
[2]
  more hydrophilic than cysteine: ~10 ×

## c1ccc(SSc2ccccn2)nc1 [2,2′-dipyridyl disulfide]
Mouse TRPA1
  intracellular Ca^2+: increased intracellular Ca^2+ in a dose-dependent manner

## catalase
Mouse TRPA1
  effect on H2O2-induced Ca^2+ increase: abolished

## O[C@H](CS)[C@H](O)CS (racemic) [dithiothreitol]
Mouse TRPA1
  effect on H2O2-induced Ca^2+ increase: markedly decreased

## NCC1(CC(=O)O)CCCCC1 [Gabapentin]
Chronic pain; self-report
  side effects: bad side effects (drowsiness)
Chronic pain; subject two
  muscle memory (residual pain), shoulder neuropathy: always had muscle memory of the pain

## O=C(NCc1ccc2c(c1)OCO2)c1c(Cl)cccc1Cl [Alda-1]
ALDH2*1
  efficiency of ALDH2*1: doubles
ALDH2*1/*2 mice
  less sensitive to mechanical pain than wild-type mice without treatment: ~30%
ALDH2*2
  increase of the activity of ALDH2*2: 2.2 fold
[5]
  decrease of early second phase pain response: ~60%

## C=CCSSCC=C [Diallyl disulfide]
[2]
  concentration on the oily (lipid) side relative to the aqueous side: about 160 times

## O=C1O[C@H]([C@@H](O)CO)C(O)=C1O [vitamin C]
[6]
  mean percentage decrease of glutathione: 60%

## CCCCCC(O)C=CC=O (centres unmarked) [4-hydroxy-2-nonenal (4-HNE), 4-hydroxy-2-nonenal]
TRPA1 [7]
  potentiation of current flow by lowering the temperature: 3 factor
mice
  time to first jump: 20 s
